Consider 2 compounds from patent publication US9018242B2, “Salt form of tyrosine kinase inhibitor” (Jiangsu Simcere Pharmaceutical R&D Co., Ltd, priority 2011, dated 2015).

Series [1] in a line: Plasma exposure (AUC) in rats after gavage administration. The series is classed as in vivo. Particulars: rat, po, male SD rats, 10 mg/kg (based on pharmaceutically active compound), salts dissolved in pure water, active compound as suspension in 0.5% CMC, up to 24 h. Here is the method:
Laboratory animal: male SD rats
Dosage: 10 mg/kg (based on pharmaceutically active compound)
Formulation for salts: dissolving in pure water
(§1) Formulation for pharmaceutically active compound: suspension in CMC (carboxymethylcellulose), 0.5%
Animal Grouping and Testing Course:
Each group includes three male rats having a weight of 180 to 210 g. Gavage administration was performed; the blood was collected at point of time: 5 min, 15 min, 30 min, 45 min, 1 h, 2 h, 4 h, 6 h, 10 h and 24 h; about 250 μl blood was collected from orbital venous plexus into a heparin-containing tube, centrifuged, and 100 μl plasma was used for LC-MS analysis.

Series [2] concerns human colon cancer HT-29 xenografts. Put plainly: Therapeutic effect on human colon cancer HT-29 xenografts in nude mice. The series is classed as in vivo, BALB/cA-nude mice. As to conditions: 40 mg/kg (based on pharmaceutically active compound), gavage for 21 days, L-malate in pure water, active compound as suspension in 0.5% CMC. Here is the method:
Laboratory animal: BALB/cA-nude mice, 6-7 weeks, ♀
Dosage: 40 mg/kg (based on pharmaceutically active compound)
Formulation for L-malate: dissolving in pure water
as §1
Nude mice were subcutaneously inoculated with human colon cancer HT-29 cells. After the tumor grew to a size of 150 to 250 mm^3, the animals were randomly divided into three groups (d0). The animals were continuously administered through gavage for 21 days, and the tumor volume was measured 2 to 3 times per week. The tumor volume (V) was calculated according to the equation: V=1/2×a×b^2, where a and b represent length and width respectively.
The relative proliferation of tumor=T/C(%)=(T−T0)/(C−C0)×100, where T and C are the tumor volumes at the end of experiment, T0 and C0 are the tumor volumes at the start of experiment; the tumor inhibition rate=1−T/C(%).

The nature of series [3]: Hygroscopicity measurement (weight gain). Format: physicochemical. As to conditions: 25±1° C., relative humidity 80±2%, 24 hours. Here is the method: The method for measuring the hygroscopicity may include: placing a certain amount of a sample to be tested into a precisely weighed glass weighing bottle (m1) with a plug and precisely weighing (m2); placing the opened weighing bottle into a thermostatic dryer (with saturated ammonium sulfate solution placed at the bottom, with a relative humidity of 80±2%) at 25±1° C. for 24 hours; covering the weighing bottle with the plug and precisely weighing (m3), and calculating the percent of weight gain of the sample to be tested according to the following equation: […]
The measurement method includes: placing a certain amount of sample to be tested into a precisely weighed glass weighing bottle (m1) with a plug and precisely weighing (m2); placing the opened weighing bottle in a thermostated dryer (with saturated ammonium sulfate solution placed at the bottom, with a relative humidity of 80±2%) at 25±1° C. for 24 hours; covering the weighing bottle with the plug and precisely weighing (m3).
Characterization of the hygroscopicity and definition of the hygroscopic weight gain:
Deliquescence: sufficient moisture was absorbed to form liquid;
Slight hygroscopicity: hygroscopic weight gain was less than 2% and not less than 0.2%: […]

Series [4] can be described thus: Solubility in water by HPLC. Format: physicochemical. Particulars: thermodynamic from solid; purified water, 25° C. Here is the method: Liquid chromatograph: Agilent 1200 HPLC system (diode array detector), ChemStation
Mobile phase: acetonitrile/water
Detection wavelength: 264 nm
About 100 mg sample to be tested was precisely weighed and placed into a 100 ml graduated flask at 25° C.; an appropriate amount of solvent [acetonitrile/water (80:20)] was added to dissolve the sample under ultrasonic sound, and the solution was diluted to a given scale and shaken up; 10 μl resulting solution was precisely measured and loaded into the liquid chromatograph, the chromatogram was recorded, and the peak area Scontrol was measured.
10 ml purified water was measured and placed into a 25 ml Kjeldahl flask. The sample to be tested was gradually added at 25° C. until an insoluble solid appeared in the solution. The solution was treated under ultrasonic sound for 30 min and the insoluble solid was filtered off. 10 μl filtrate was precisely weighed and loaded into the liquid chromatograph, the chromatogram was recorded, and the peak area Stest was measured.

Values after ≈ are worked out from the molar mass of the structure shown.

For the compound `CCN(CC)CCNC(=O)c1c(C)[nH]c2c1CCC/C2=C1/C(=O)Nc2ccc(F)cc21.O=C(O)C[C@H](O)C(=O)O` [L-malate, (Z)—N-[2-(diethylamino)ethyl]-2-methyl-7-(1,2-dihydro-5-fluoro-2-oxo-3H-indol-3-ylidene)-4,5,6,7-tetrahydro-1H-indol-3-carboxamide L-malate], the AUC(0-t) in series [1] stood at 1490 ng·h/mL. For the same compound, the “Tumor Inhibition Rate” value in series [2] is 54%. The Hygroscopicity entry in series [3] is recorded as “Almost no hygroscopicity”. Also, the solubility at 30 min in series [4] came out at 38.6 mg/mL.

Regarding `CCN(CC)CCNC(=O)c1c(C)[nH]c2c1CCC/C2=C1/C(=O)Nc2ccc(F)cc21` [Pharmaceutically active compound, (Z)—N-[2-(diethylamino)ethyl]-2-methyl-7-(1,2-dihydro-5-fluoro-2-oxo-3H-indol-3-ylidene)-4,5,6,7-tetrahydro-1H-indol-3-carboxamide], the AUC(0-t) in series [1] was 128 ng·h/mL. In addition, the “Tumor Inhibition Rate” value in series [2] is given as 40%. In series [3], the Hygroscopicity entry was “Almost no hygroscopicity”. For the same compound, the solubility at 30 min in series [4] is 0.02 mg/mL (≈ 47.1 µM).

A word on the AUC(0-t): it is exposure summed from dosing to a finite time, without extrapolation to infinity. A word on the solubility: it is the dissolved amount per volume that the medium holds. Read a low solubility as a poorly soluble substance.
